Reference: PMC3724450 (Nature communications, 2013)

System: HCC4017
Test: Cell viability assay, patient matched pair
Settings: patient matched cancer vs normal lines

SMILES: COC(=O)CNC(=O)C(=O)OC [D1070, dimethyloxalylglycine]
- selectivity for cancer vs. normal patient matched cells: only five-fold selectivity for cancer
